The text below walks through data of patent US20060251692A1, “Use of glycol ethers as biodispersants in heating and cooling systems” (priority 2005, published 2006).

This test relates to biofilms. Description: pilot site cooling tower (building downtown Montreal) treated with biodispersant, DATS clogging monitor and direct microbiological measurements.

SMILES strings stand for the structures.

In the case of `COC(C)COC(C)CO` (stereo not drawn) [dipropylene glycol methyl ether], the “dig out of deposits covering the inside walls of the tower” value (300 ppm in recirculating water, no bactericide) is on record as “allowed first the dig out of the deposits”. The “DATS clogging monitor measurements” value (after few days of treatment) is reported as “the measurements were stabilized”. Where the note is “without any bactericide injection”, the “direct measurements of the microbiological activity (bacterial population vs initial state)” value is given as “downwards stabilization of the bacterial population”.
